From publication PMC11858854, “In Vitro and In Vivo Assessment of Pharmacokinetic Profile of Peramivir in the Context of Inhalation Therapy” (Pharmaceuticals, 2025)

Columns and labels:
[1] = Permeability assay, LLC-PK1-MOCK cells; assay type: in vitro ADME; conditions: pig, LLC-PK1, 2 μM; for Papp A→B at 2 h, 2 µM / Papp B→A at 2 h, 2 µM: Mean ± SD, n = 3; for efflux ratio at 2 h, 2 µM: read-out: ER
Description: (§5) When the cell transport system was mature in culture, experiments were performed. […] When assessing permeability in basolateral to apical (B-A) direction, 100 μL of pre-warmed Buffer B and 600 μL of pre-warmed test solutions were added to the apical and basolateral compartments, respectively. The Transwells® were placed in an incubator at 37 °C and 5% CO2 for a duration of 2 h. At the end of the incubation period, the samples in the apical and basolateral sides were collected separately and were briefly kept at a temperature of −40 °C for LC-MS/MS analysis. […] The cells were transferred to Transwell® plates (Corning, NY, USA) at a density of 2 × 10^4 cells/well with 200 μL of cell suspension per well, while 850 μL of complete medium was added to the basolateral chamber. […] The samples were collected separately and were briefly kept at a temperature of −40 °C for LC-MS/MS analysis.

[2] = Bidirectional transport, Calu-3 air-liquid culture model; conditions: human
P-gp = assay: as above; conditions: human, with tariquidar 5 µM
P-gp (MDR1) = P-gp (MDR1) (Homo sapiens, UniProt P08183); assay: Permeability assay, LLC-PK1-MDR1 cells overexpressing P-gp; conditions: for Papp B→A at 2 h, 2 µM / efflux ratio at 2 h, 2 µM: human, LLC-PK1
Chain of P-gp (MDR1) (P08183 whole entry): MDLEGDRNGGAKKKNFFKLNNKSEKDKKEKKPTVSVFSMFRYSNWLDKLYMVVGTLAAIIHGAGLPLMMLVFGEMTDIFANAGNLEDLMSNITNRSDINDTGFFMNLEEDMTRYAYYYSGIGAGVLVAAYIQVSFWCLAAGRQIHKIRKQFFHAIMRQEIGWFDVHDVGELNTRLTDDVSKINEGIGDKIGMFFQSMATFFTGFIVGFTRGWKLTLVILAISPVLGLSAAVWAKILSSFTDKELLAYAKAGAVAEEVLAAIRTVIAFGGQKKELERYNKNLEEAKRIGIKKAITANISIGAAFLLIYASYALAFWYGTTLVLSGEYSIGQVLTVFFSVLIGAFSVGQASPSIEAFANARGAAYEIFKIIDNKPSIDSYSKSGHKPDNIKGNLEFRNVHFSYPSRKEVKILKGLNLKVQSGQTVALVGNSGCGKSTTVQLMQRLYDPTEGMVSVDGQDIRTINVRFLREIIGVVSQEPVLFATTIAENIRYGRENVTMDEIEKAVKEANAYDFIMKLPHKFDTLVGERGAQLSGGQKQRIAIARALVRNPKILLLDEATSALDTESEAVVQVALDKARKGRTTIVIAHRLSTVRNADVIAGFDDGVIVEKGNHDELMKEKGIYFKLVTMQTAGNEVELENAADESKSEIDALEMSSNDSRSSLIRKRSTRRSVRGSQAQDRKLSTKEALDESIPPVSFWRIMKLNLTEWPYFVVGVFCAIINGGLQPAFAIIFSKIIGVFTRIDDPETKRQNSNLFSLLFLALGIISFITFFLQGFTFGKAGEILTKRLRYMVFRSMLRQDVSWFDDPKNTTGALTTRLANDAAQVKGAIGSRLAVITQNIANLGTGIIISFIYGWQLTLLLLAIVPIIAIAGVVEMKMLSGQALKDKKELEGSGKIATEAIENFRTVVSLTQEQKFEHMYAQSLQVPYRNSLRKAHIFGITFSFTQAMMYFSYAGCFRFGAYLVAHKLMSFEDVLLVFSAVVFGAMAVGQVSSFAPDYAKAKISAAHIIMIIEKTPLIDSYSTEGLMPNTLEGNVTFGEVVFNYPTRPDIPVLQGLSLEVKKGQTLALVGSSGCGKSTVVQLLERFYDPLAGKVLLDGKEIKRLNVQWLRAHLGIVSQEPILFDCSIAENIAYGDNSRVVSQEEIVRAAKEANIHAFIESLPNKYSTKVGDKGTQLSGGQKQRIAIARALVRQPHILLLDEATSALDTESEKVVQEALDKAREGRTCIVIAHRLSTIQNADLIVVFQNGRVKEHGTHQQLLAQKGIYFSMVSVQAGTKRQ
Description: as §5

human MDR1 (P-gp) = human MDR1 (P-gp) (Homo sapiens, UniProt P08183); assay: as above; conditions: LLC-PK1-MDR1, 2 μM, Mean ± SD, n = 3
Chain of human MDR1 (P-gp) (P08183 whole entry): as above
Description: as §5

NCI-H441 cell model = assay: Bidirectional transport, NCI-H441 air-liquid culture model; assay type: in vitro ADME, human
Description: (§1) NCI-H441 cells were cultured in RPMI-1640 medium (Gibco, Thermo, CA, USA) supplemented with 10% FBS and PS (100 U/mL) at 37 °C in a humidified 5% CO2 incubator, and the medium was changed every other day. […] Then, 850 μL of complete medium (containing 200 nM dexamethasone) was added to the basolateral chamber. […] Subsequently, an air-interfaced culture (AIC) was initiated by supplying 650 μL of culture medium to the basolateral chamber only. The culture medium was replaced every other day.
(§2) We removed the liquid from the apical and basolateral of the Transwell, rinsed the cells three times with a buffer containing HBSS, 10 mM Hepes, and 0.1% BSA (Buffer A), and then added Buffer A (100 µL for the apical side and 600 µL for the basolateral side) for pre-incubation for 30 min at 37 °C. For the transport studies in the apical to basolateral (A-B) direction, 100 μL of pre-warmed test solution (Buffer A containing 2 µM positive control drugs or peramivir) was added to the apical side, while 600 μL of pre-warmed assay buffer, a buffer containing HBSS, 10 mM Hepes, and 1% BSA (Buffer B), was added to the basolateral compartment.

[3] = tested on: NCI-H441/dTHP co-culture model; assay: Bidirectional transport, NCI-H441/dTHP co-culture model; assay type: in vitro ADME, human; conditions: for ER: NCI-H441/dTHP, 2 μM
Description: (§3) THP-1 cells were cultured in RPMI-1640 medium (Gibco, Thermo, CA, USA) supplemented with 10% FBS, PS (100 U/mL), and β-Mer (0.05 mM) at 37 °C in a humidified 5% CO2 incubator, and the medium was changed every other day. THP-1 cells were seeded at 4 × 10^5 cells/mL in six-well plates and induced for 48 h by adding medium containing a final concentration of 100 ng/mL PMA.
(§4) Then, the differentiated cells were seeded at 5 × 10^4 cells/well on the surface of NCI-H441 cells 10 days after air–liquid culture and continued to co-culture for 24 h.
as §2

Calu-3 cell model = assay: Bidirectional transport, Calu-3 air-liquid culture model; conditions: Calu-3, about 14 days air–liquid interface
[4] = administered orally; cited from earlier work
[5] = Bidirectional transport, NCI-H441 air-liquid culture model; assay type: in vitro ADME, human; conditions: human, NCI-H441, 2 μM; for Papp A→B at 2 h, 2 µM / Papp B→A at 2 h, 2 µM: Mean ± SD, n = 3
Description: as §1, §2

BCRP = assay: as above; assay type: in vitro ADME, human; conditions: human, with ko143 5 µM; NCI-H441, topotecan 2 μM with BCRP inhibitor ko143 (5 μM); read-out: ER value, inhibitor group
Description: as §1, §2

[6] = Bidirectional transport, NCI-H441/dTHP co-culture model; assay type: in vitro ADME, human; conditions: human; NCI-H441/dTHP, 2 μM, Mean ± SD, n = 3
Description: as §3, §4, §2

SMILES | Papp A→B at 2 h, 2 µM [1] | Papp B→A at 2 h, 2 µM [1] | efflux ratio at 2 h, 2 µM [1] | Papp A→B at 2 h, 2 µM [2] | Papp B→A at 2 h, 2 µM [2] | Papp B→A at 2 h, 2 µM (P-gp (MDR1)) | efflux ratio at 2 h, 2 µM (P-gp (MDR1)) | ER [3] | Papp A→B at 2 h, 2 µM [5] | Papp B→A at 2 h, 2 µM [5] | Papp A→B at 2 h, 2 µM [6] | Papp B→A at 2 h, 2 µM [6] | also measured
C[C@H]1O[C@@H](O[C@H]2[C@@H](O)C[C@H](O[C@H]3[C@@H](O)C[C@H](O[C@H]4CC[C@@]5(C)[C@H](CC[C@@H]6[C@@H]5C[C@@H](O)[C@]5(C)[C@@H](C7=CC(=O)OC7)CC[C@]65O)C4)O[C@@H]3C)O[C@@H]2C)C[C@H](O)[C@@H]1O [Digoxin] | 1.64 ± 0.27 ×10⁻⁶ cm/s | 2.22 ± 0.36 ×10⁻⁶ cm/s | 1.35 | 0.66 ± 0.02 ×10⁻⁶ cm/s | 25.1 ± 7.18 ×10⁻⁶ cm/s | 9.76 ± 0.73 ×10⁻⁶ cm/s | 13.1 | – | – | – | – | – | efflux ratio at 2 h, 2 µM (P-gp): ~1; Papp A-B (human MDR1 (P-gp)): 0.74 ± 0.15 ×10−6 cm/s
NNC(=O)NN1C(=O)c2cc(S(=O)(=O)[O-])cc3c(N)c(S(=O)(=O)[O-])cc(c23)C1=O.[K+].[K+] [Lucifer yellow CH dipotassium salt] | – | – | – | – | – | – | – | – | – | – | – | – | permeability value (barrier integrity) (NCI-H441 cell model; NCI-H441, about 7 days air–liquid interface): < 2 ×10⁻⁶ cm/s; permeability value (barrier integrity) ([3]; NCI-H441/dTHP co-culture 24 h): < 2 ×10⁻⁶ cm/s; permeability value (barrier integrity) (Calu-3 cell model): < 2 ×10⁻⁶ cm/s
CC(C)NCC(O)COc1ccc(CC(N)=O)cc1 (stereo not drawn) [Atenolol] | – | – | – | – | – | – | – | 0.88 | – | – | – | – | –
CC(=O)N[C@H]1[C@H]([C@H](O)[C@H](O)CO)OC(C(=O)O)=C[C@@H]1N=C(N)N [zanamivir] | – | – | – | – | – | – | – | – | – | – | – | – | absolute bioavailability [4]: approximately 2%
CC[C@@]1(O)C(=O)OCc2c1cc1n(c2=O)Cc2cc3c(CN(C)C)c(O)ccc3nc2-1 [Topotecan] | – | – | – | – | – | – | – | 2.15 | 1.54 ± 0.12 ×10⁻⁶ cm/s | 3.47 ± 0.26 ×10⁻⁶ cm/s | 2.88 ± 0.55 ×10⁻⁶ cm/s | 6.18 ± 1.63 ×10⁻⁶ cm/s | efflux ratio at 2 h, 2 µM ([5]; read-out: ER): 2.25; efflux ratio at 2 h, 2 µM (BCRP): ~1
COCCc1ccc(OCC(O)CNC(C)C)cc1 (stereo not drawn) [Metoprolol] | 28.5 ± 2.17 ×10⁻⁶ cm/s | 25.6 ± 3.71 ×10⁻⁶ cm/s | 0.9 | 29.8 ± 2.28 ×10⁻⁶ cm/s | 21.9 ± 3.73 ×10⁻⁶ cm/s | 23.1 ± 1.94 ×10⁻⁶ cm/s | 1.13 | 0.90 | 25.6 ± 5.45 ×10⁻⁶ cm/s | 23.4 ± 2.96 ×10⁻⁶ cm/s | 27.9 ± 7.99 ×10⁻⁶ cm/s | 24.36 ± 0.22 ×10⁻⁶ cm/s | ER (NCI-H441 cell model; NCI-H441, 2 μM): 0.91; efflux ratio at 2 h, 2 µM [2]: 29.8 ± 2.28; Papp A→B at 2 h, 2 µM (P-gp (MDR1)): 20.4 ± 1.24 ×10⁻⁶ cm/s
